# Measured values reported in patent publication US20070112068A1, “Nitrile compound and its use in pest control” (priority 2003, published 2007).
# Experiments:
# Assay type in all cases: in vivo
# Blattella germanica [1] = test: Experimental Example 22: treated filter paper suspended in chamber, Blattella germanica; details: 10 mL of 10% (w/v) acetone solution on filter paper; 70 cm cube chamber; after 72 hours
# Experimental: A 10% (w/v) solution of the present compound (31) in acetone is prepared. 10 mL of the solution is uniformly added dropwise to a filter paper with 10 cm×25 cm and then air-dried. The filter paper is suspended from the center of the ceiling of a chamber with 70 cm (width)×70 cm (depth)×70 cm (height). After 20 imagoes (10 males and 10 females) of Blattella germanica are released, the door of the chamber is closed. Feed and water are placed in the glass chamber.
# Periplaneta fuliginosa = test: Experimental Example 16: treated filter paper in paper box, Periplaneta fuliginosa; details: 0.1 ml of 5% (w/v) acetone solution on filter paper in paper box; after 7 days
# Experimental: 5% (w/v) solutions of the present compounds (23), (24) and (31) in acetone were prepared. 0.1 ml of the solution was added dropwise onto a filter paper with 2 cm×2 cm and then air-dried. This filter paper was attached to the center of the inside bottom of a paper box having 10 cm (width)×2 cm (height)×7 cm (depth) with a two-sided tape. One hole of 2 mm in width and 2 cm in height was made through one side of this box. This box was placed in a plastic vat with 25 cm×20 cm×8 cm in height and therein 3 females and 3 males of Periplaneta fuliginosa were released. The inside wall of the plastic vat used in this experiment was coated with talc for preventing the escape of cockroaches. The plastic vat contained feed and water and left at 25° C. After 7 days, Periplaneta fuliginosa was observed and the death rate of the pest was calculated. This experiment was repeated two times.
# Blattella germanica [2] = test: Experimental Example 14: topical application, Blattella germanica; details: 1 μl of 1% (w/v) acetone solution onto sternum of thorax of female imagoes; after 7 days
# Experimental: 1% (w/v) solutions of the present compounds (4), (20), (22), (23), (24), (29), (30), (31), (35), (36), (37), (38), (46), (53), (54), (56), (57), (59), (61), (66), (67), (68), (69), (70), (71), (79), (81), (83), (84), (89), and (90) in acetone were prepared. Onto the sternum of the thorax of female imagoes of Blattella germanica, 1 μl of the acetone solution was added dropwise. The imagoes were transferred to a plastic cup having a diameter of about 9 cm and a height of about 4.5 cm and left together with feed and water at 25° C. After 7 days, the number of surviving Blattella germanica was examined and the death rate of the pest was calculated. 10 imagoes of Blattella germanica were put in a cup and three replicate experiments were performed.
# Blattella germanica [3] = test: Experimental Example 21: poison bait, Blattella germanica; details: poison bait: 3 ml of 0.5% by weight acetone solution per 3 g animal feed; 1 g bait; after 7 days
# Experimental: 3 ml of a 0.5% by weight solution of the present compound (31) in acetone is added dropwise to 3 g of animal powdery feed, mixed thoroughly, and then air-dried to obtain a poison bait. 1 g of this poison bait is placed on an aluminum dish and the dish is placed in a plastic cup (860 mL) containing 20 imagoes (10 males and 10 females) of Blattella germanica. The pest is given water and kept at 25° C. After 7 days, the number of surviving Blattella germanica is examined and the activity of the poison bait is obtained.
# Musca domestica = test: Experimental Example 11: treated filter paper in Peet-Grady chamber, Musca domestica; details: 5 ml of 1% (w/v) acetone solution on filter paper; 1.8 m Peet-Grady chamber; 1 hour exposure, 24 hours later
# Experimental: A 1% (w/v) solution of the present compound (31) in acetone was prepared. Onto a filter paper with 10 cm×25 cm, 5 ml of the solution was added dropwise uniformly and then air-dried. This filter paper was suspended from the center of the ceiling center of a Peet-Grady chamber with 1.8 m (width)×1.8 m (depth)×1.8 m (height) and therein about 50 imagoes of Musca domestica were released. After 1 hour, all test pests were collected, put into a plastic cup together with absorbent cotton impregnated with 5% sugar water, and then left at 25° C. After 24 hours, the number of surviving Musca domestica was examined and the death rate was calculated.
# Culex pipiens pallens = test: Experimental Example 26: liquid-absorbing wick-type heat-vaporizing product, Culex pipiens pallens; details: liquid-absorbing wick-type product (Formulation Example 19); 20 minutes exposure, after 24 hours
# Text: A part of a liquid-absorbing wick-type heat-vaporizing pesticidal product of the present compound (31) prepared according to Formulation Example 19 is set on a heater for a liquid absorbing wick-type heat-vaporizing pesticide, and then placed on the center of the floor of a chamber having 70 cm (width)×70 cm (depth)×70 cm (height). After the part of a liquid-absorbing wick-type heat-vaporizing pesticidal product is initiated to be heated with the heater, about 20 female imagoes of Culex pipiens pallens are released in the chamber. After 20 minutes, all test pests are collected, placed in a plastic cup together with absorbent cotton impregnated with 5% sugar water, and left at 25° C.
# Blattella germanica [4] = test: Experimental Example 13: direct oil spray in CSMA chamber, Blattella germanica; details: 1.5 ml of 0.025% (w/v) oil sprayed directly; after 3 days
# Experimental: 7.5 mg of the present compound (31) was dissolved in 30 mL of a mixture of 90 parts by weight of Isopar M (isoparaffin, the registered trade name of Exxon Chemical) and 10 parts by weight of dichloromethane to prepare a 0.025% (w/v) oil. A plastic container (diameter: 9.5 cm, height: 4 cm, bottom part of 16 mesh wire) containing 10 imagoes (5 males and 5 females) of Blattella germanica was placed on the bottom of a CSMA chamber (width: 46 cm, depth: 46 cm, height: 70 cm).
# 1.5 ml of the oil was directly sprayed on test cockroaches from the upper side of the CSMA chamber. After 30 seconds from spraying, the container containing cockroaches was removed. All cockroaches were transferred to another clean plastic container (200 mL) and left together with feed and water at 25° C. After 3 days, the number of surviving Blattella germanica was examined and the death rate of the pest was calculated.
# Halyomorpha mista = test: Experimental Example 24: direct oil spray in CSMA chamber, Halyomorpha mista; details: 0.4 ml of 5% (w/v) oil sprayed directly; after 72 hours
# Experimental: 1.5 g of the present compound (31) is dissolved in 30 mL of a mixed solvent of 90 parts by weight of Isopar M (isoparaffin; the registered trade name of Exxon Chemical) and 10 parts by weight of dichloromethane to prepare a 5% (w/v) oil. A plastic cup (860 mL) containing 10 imagoes of Halyomorpha mista is covered with a nylon net (mesh width: 2 mm) and then placed on the bottom of a CSMA chamber (width: 46 cm, depth: 46 cm, height: 70 cm). 0.4 ml of the oil is directly sprayed on the test Halyomorpha mista from the upper side of the CSMA chamber. After 10 seconds from spraying, the cup containing Halyomorpha mista is removed, and feed and water are placed in the cup.
structure (smiles),measurement,setting,value
N#CC(C#N)(CCC(F)(F)F)CC(F)(F)C(F)(F)C(F)(F)C(F)F [(31)],pesticidal effect,Blattella germanica [1],pesticidal effect on Blattella germanica is confirmed
same,death rate of the pest,Periplaneta fuliginosa,100%
same,death rate of the pest,Blattella germanica [2],100%
same,activity of the poison bait,Blattella germanica [3],sufficient pesticidal effect
same,death rate of the pest,Musca domestica,92%
same,pesticidal effect,Culex pipiens pallens,pesticidal effect on Culex pipiens pallens is confirmed
same,death rate of the pest,Blattella germanica [4],100%
same,pesticidal effect,Halyomorpha mista,pesticidal effect on Halyomorpha mista is confirmed
